Results reported in patent publication US20240002547A1, “T[…]-TARGETING CONSTRUCTS AND USES THEREOF” (AEBI LTD., priority 2016, published 2024).
pIC50: −log10 of the molar value. Positions of bridges follow the written chain, without caps; N, C: chain ends. No end group written: not given here.

Key:
[1] = In vivo stability of fluorescently marked peptide in blood after tail vein injection; details: mice
Experimental: The stability of the fluorescently marked peptide E13.3 alone or bound to 8-armed PEG was evaluated in vivo by injecting the compounds to the tail vein of mice. The blood of the animals was analyzed for the presence of the peptide (fluorescence) at different time intervals. It can be clearly seen from the result presented in FIG. 14 that t0.5 of the free peptide is much shorter (about several minutes) than that of the peptides bound to PEG (t0.5 of about 3.5 hours).

[2] = biological target: human Epidermal Growth Factor Receptor (EGFR) (Homo sapiens, UniProt P00533); test: Screening of cyclopeptides binding to human EGFR
Experimental: Using the technique described in WO 2007/010525, a series of new peptides (cyclopeptides) binding to human Epidermal Growth Factor Receptor (EGFR) were generated and tested. After identification of several potential peptide, a few further cycles of optimization were performed.

human EGFR = biological target: T1, human EGFR (Homo sapiens, UniProt P00533); test: EGFR autophosphorylation ELISA in A431 cells; type: cell-based
T1 construct: human EGFR in human epidermoid carcinoma cell line A431; endogenous in cells; host or cells: A431
Experimental: The effect of several peptides on the phosphorylation levels of human EGFR in human epidermoid carcinoma cell line A431 was assessed by ELISA test. Briefly, exponentially growing A431 cell culture were detaches from the flask with 0.25% trypsin/EDTA solution, and 200 μl of cell suspension were transferred to 96-well plates at the concentration of 2×10^5 cells/ml and grown for about 3 days. Following medium exchange, 50 μl EGF dilutions and EGF+peptides (50 ng/ml and 0.2 mg/ml, respectively) were added. The plate was incubated for 7.5 min at 37° C. EGF-containing medium was removed and the cells were fixed by 150 ul of fixing solution and incubated for 20 min. at room temperature, following which the plate was washed 2 times with triton washing solution. The level of phosphorylates was assessed by incubation with phospho-EGFR (Tyr1045) antibody as a primary antibody and Anti-rabbit IgG as a secondary antibody. […] The normalized percent of inhibition (of the EGFR auto-phosphorylation is presented in FIG. 11 and Table 4. The normalized percent of inhibition is calculated as the fluorescence signal of the test item divided by the fluorescence signal of the control that contains no test item, with the same concentration of EGF.
Efficacy of different concentration of the selected peptide was assessed by ELISA in a similar was as in Example 12. […]

eEF2 = biological target: T2, eEF2 (Homo sapiens, UniProt P13639); test: in vitro transcription/translation system (HeLa lysate, 1-Step Human Coupled IVT Kit, pCFE-GFP DNA); type: biochemical; details: peptide 5 μM; 4 hr at 30° C.; versus positive control without peptide and non eEF2-binding control peptide
T2 construct: in vitro transcription/translation system using HeLa Lysate system; host or cells: HeLa lysate (1-Step Human Coupled IVT Kit-DNA)
Experimental: The effect of Tox1 and Tox2 was tested in the in vitro transcription/translation system using HeLa Lysate system 1-Step Human Coupled IVT Kit-DNA (ThermoFisher Scientific). The following peptides were tested: GW (Tox1), DRB RB, TB2 (Tox2), and BW. In addition, a non eEF2-binding control peptide, GR, was also tested.
The IVT Kit components were mixed, and one portion was taken out to serve as a negative control. The rest of the mix was supplemented with pCFE-GFP DNA. This DNA, when transcribed and translated gives a fluorescence protein, GFP. The extent of fluorescence gives a measure of the extent of protein synthesis.
The mix was split into […] aliquots. Each aliquot was supplemented with lml of one concentration of a specific peptide. A positive control was supplemented with lml of PBS. The reaction mixtures were incubated 4 hr at 30° C.
[…] of PBS were added to each reaction mixtures. The mixtures were transferred to a 96 well black ELISA plate, and the fluorescence was measured at ex/em 482/512 nm.

[3] = biological target: T3, eEF2 (Human; Yeast derived) (Homo sapiens, UniProt P13639); test: ELISA binding of phage-displayed peptides to eEF2 or BSA; details: M13 phages expressing the peptide; read after 1.5 min and 30 min; BSA negative control
T3 construct: host or cells: yeast
Experimental: Binding of Tox 1 and Tox2 to eEF2 was tested by ELISA using eEF2 or BSA as ligands.
0.25 μg of target proteins, eEF2 (Human; Yeast derived) or BSA (negative control) were applied to several wells of maxisorp plate (NUNC) in 50 μl PBS and incubated over night at 4° C. The solutions were removed, and each well was supplemented with 280 μl blocking solution (BSA 2 mg/ml). The plate was incubated 1 hr at 25° C.
To 1.5 ml tubes 100 μl of blocking solution+10^9 pfu (plaque forming units) of M13 phages that express the following peptides: eEF2-binding: RB, LBR1, TB2 (Tox2), Y02, GW (Tox1), DRB, PY, BW were added. The plate was incubated 1 hr at 25° C. The solution were discarded and the wells were washed 7 times with 280 μl washing solution (Tween 20 0.05%).
Each well was supplemented with 50 μl of HRP/Anti-M13 Monoclonal Conjugate (GE Healthcare) diluted 1:5000. The plate was incubated 1 hr at 25° C. The solutions were discarded and the wells were washed 7 times with 280 μl washing solution (Tween 20 0.05%). Each well was supplemented with 50 μl of TMB (T0440; Sigma).
The plate was photographed using a scanner after incubation time of 1.5 min and 30 min.

human PD-L1 = human PD-L1 (Homo sapiens, UniProt Q9NZQ7); test: Screening of cyclopeptides binding to human PD-L1
Sequence of human PD-L1 (Q9NZQ7 19-290): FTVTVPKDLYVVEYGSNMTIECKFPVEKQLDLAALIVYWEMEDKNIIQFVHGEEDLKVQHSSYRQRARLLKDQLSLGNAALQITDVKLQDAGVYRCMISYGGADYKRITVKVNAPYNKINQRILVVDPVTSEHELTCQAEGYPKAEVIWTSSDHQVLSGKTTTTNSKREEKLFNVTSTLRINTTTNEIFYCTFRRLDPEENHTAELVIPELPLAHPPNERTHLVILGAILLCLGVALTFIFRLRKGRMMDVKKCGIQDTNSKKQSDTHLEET
Experimental: Using the technique described in WO 2007/010525, a series of new peptides (cyclopeptides) binding to binding to a human PD-L1 were generated and tested. After identification of several potential peptides, a few further cycles of optimization were performed.

FaDu = test: Viability of FaDu cells, alamarBlue; type: cell-based, human; details: all tested concentrations
Experimental: (§1) The anti-cancer activity of E13.3 was assessed using several cancer cell lines (A549—human lung carcinoma cell line and FaDu—human pharyngeal carcinoma cell line). The cell cultures were incubated in the presence or absence of E13.3 (at different concentrations) and tested for viability using alamarBlue reagent. The results are presented on FIG. 15.

NCI-H1650 tumor = test: Accumulation of fluorescein-labelled E13.3-PEG in kidney, liver and tumor of xenograft mice; type: in vivo
Experimental: E13.3-PEG was labeled with Flourescein and injected IV to Xenograft mice bearing subcutaneous NCI-H1650 tumor (lung cancer). Following anesthesia, kidney, liver and tumor were collected at specific time points and the fluorescence was measured.

A549 = test: Viability of A549 cells, alamarBlue; type: cell-based, human; details: all tested concentrations
Experimental: as §1

MCF-7 cells = test: Toxicity of PEG constructs on MCF-7 cells, microscope images after 48 hours; type: cell-based, human
Experimental: (§2) A construct comprising a multi-arm-PEG scaffold bound to E13.3 targeting peptide having the sequence SEQ ID NO: 1 ([…]) and a toxin selected from BIMBH3 (referred also as BIM and having the sequence SEQ ID NO: 5 […]) or a combination of Tox1 and Tox2 was generated. The scaffolds were prepared as described in Example 5 and is denoted as PEG-E13.3-Tox1-Tox2 and PEG-13.3-BIM, accordingly
(§3) A431 cells (human squamous carcinoma express about 100,000 copies of EGFR on each cell) and MCF-7 cells (breast cancer cell expressing about 3,000 copies of EGFR on each cell) were thawed and cultivated to achieve exponentially growing cultures. Cells were collected, counted and seeded at the density of 7,000 cells/well and 5,000 cells/well, respectively, in a 96 well tissue culture plate.
(§4) The plates were incubated until the next day at the following conditions: 37±1° C., humidified, and 5±0.5% CO2/air, to enable cells adherence to the wells.
(§5) The cell viability of A549 cell was tested using Alamar Blue viability assay. At the next day following the seeding, Growth Media was replaced with 200 μl Assay Media that contained 2% FBS and Test Items at different concentrations of the construct (1, 3 and 8 μM), or Vehicle Control (PBS; concentration-0). Plates were incubated at 37±1° C., humidified 5±0.5% CO2/air. […]

A431 cells = test: Toxicity of PEG constructs on A431 cells, microscope images after 48 hours; type: cell-based, human
Experimental: as §2, §3, §4, §5

[4] = 1, 3 and 8 μM, 48 hours, images

Substance: CHPGDKQEDPNCLQADK [E13.3]
- t0.5 in blood ([1]; free peptide): about several
- affinity to the receptor at its binding site [2]: high affinity
- Normalized Percent of EGFR autophosphorylation inhibition (human EGFR; A431, EGF 50 ng/ml, peptide 0.2 mg/ml, 7.5 min at 37° C., phospho-EGFR (Tyr1045)): 99.4%
- pIC50 (human EGFR; Example 12, read-out: calculated IC50 of EGFR autophosphorylation inhibition): 5.70

Substance: Cys-Arg-Arg-Gly-Ser-Arg-Ala-Ser-Gly-Ala-His-Cys (CRRGSRASGAHC; disulfide 1-12) [Tox2]
- GFP fluorescence (extent of protein synthesis) (eEF2): highest effect
- binding to eEF2 (ELISA signal) [3]: strongest effect

Substance: Cys-Ser-Ala-Arg-Trp-Gly-Pro-Thr-Met-Pro-Trp-Cys (CSARWGPTMPWC; disulfide 1-12) [Tox1]
- GFP fluorescence (extent of protein synthesis) (eEF2): highest effect

Substance: CysGluGlyLeuProAlaAspTrpAlaAlaAlaCys (CEGLPADWAAAC; also: cyclic, mode not given here) [PD-L1-GR]
- affinity to the receptor at its binding site (human PD-L1): high affinity

Substance: E13.3-PEG: E13.3 bound to 8 arm PEG Succinimidyl Carboxymethyl Ester, MW 73,000 (Ac-CHPGDKQEDPNCLQADK; not fully specified; cysteine pairing not given here; also: one amine Dde-protected, site not given here)
- viability of cancer cells (FaDu): successfully reduce the viability
- interaction with and internalization by cancer cells isolated from tumor (NCI-H1650 tumor; 1 hour and 24 hour after IV injection): most of the cancer cells interact with E13.3-PEG and internalize the fluorescent peptide
- fluorescence in kidney and liver (NCI-H1650 tumor; IV, NCI-H1650 xenograft mice): fast increase in the fluorescence in kidney and liver with a typical elimination curve afterwards
- fluorescence in tumor (cancer cells) (NCI-H1650 tumor; IV, NCI-H1650 xenograft mice): accumulated in the cancer cells
- t0.5 in blood ([1]; bound to 8-armed PEG): about 3.5 hours
- viability of cancer cells (A549): successfully reduce the viability

Substance: PEG-E13.3-Tox1-Tox2: multi-arm-PEG scaffold bound to E13.3 targeting peptide and a combination of Tox1 and Tox2 (peptide 1 Ac-CHPGDKQEDPNCLQADK; peptide 2 CSARWGPTMPWC; peptide 3 CRRGSRASGAHC; not fully specified (bridges); cysteine pairing not given here; also: multi-arm PEG scaffold carrying E13.3, Tox1 and Tox2)
- effect on cell aggregates / proportion of dead cells (MCF-7 cells; [4]): proportion of dead cells increased
- potency of cell death compared with the BIM construct (MCF-7 cells; images at 48 hours): more potent
- effect on cell aggregates / proportion of dead cells (A431 cells; [4]): proportion of dead cells increased
- potency of cell death compared with the BIM construct (A431 cells; images at 48 hours): more potent
